Key:
TxA2 Synthase [1] = target: T1, TxA2 Synthase (Rattus norvegicus, UniProt P49430); experiment: Inhibition of TxA2 synthase activity: TxB2 production in rat whole blood during clotting (serum, RIA), in vitro; type: cell-based; details: for inhibitory activity on TxA2 synthesis (in words): rat
T1 construct: TxB2 generated in whole blood during clotting; endogenous in cells; host or cells: rat whole blood (blood cells, mainly platelets), clotted 1 h at 37 °C
T1 sequence (P49430 1-533): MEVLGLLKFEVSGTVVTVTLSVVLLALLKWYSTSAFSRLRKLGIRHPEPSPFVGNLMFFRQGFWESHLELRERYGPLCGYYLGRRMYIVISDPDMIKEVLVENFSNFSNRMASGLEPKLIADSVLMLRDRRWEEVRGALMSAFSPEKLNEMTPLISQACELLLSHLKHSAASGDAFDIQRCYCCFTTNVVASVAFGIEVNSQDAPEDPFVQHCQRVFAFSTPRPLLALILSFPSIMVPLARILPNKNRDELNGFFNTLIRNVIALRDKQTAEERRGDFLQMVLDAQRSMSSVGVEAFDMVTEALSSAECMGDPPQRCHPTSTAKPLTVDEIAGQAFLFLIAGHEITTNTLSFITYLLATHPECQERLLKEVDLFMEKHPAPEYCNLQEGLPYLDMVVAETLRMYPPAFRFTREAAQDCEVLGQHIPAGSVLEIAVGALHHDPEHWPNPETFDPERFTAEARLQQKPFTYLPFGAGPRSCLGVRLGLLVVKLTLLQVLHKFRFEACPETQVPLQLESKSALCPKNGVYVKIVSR
Method: The compounds of formula (I) were for example tested for their ability to inhibit TxA2 Synthase activity (as reflected by TxB2 generated in whole blood during clotting or in isolated glomeruli) in vitro in the rat.
The in vitro experiments were carried out as follows:
The effect of the compounds on TxA2 synthesis was evaluated in serum.
Blood was withdrawn from the abdominal aorta of the animals under light ether anesthesia.
Samples were then allowed to clot for 1 h at 37° C., centrifuged at 3000 rpm for 10 min, serum collected and stored at -20° C. until assayed. TxB2 levels were determined by RIA according to previously described procedures [Patrono et al.--Thromb. Res. 17, 3/4, 317, 1980] using highly specific antibody.

TxA2 receptor = target: T2, TxA2 receptor (Homo sapiens, UniProt P21731); experiment: [3H]-SQ 29,548 binding displacement in washed human platelets (TxA2 antagonism)
T2 construct: endogenous in cells; host or cells: washed human platelets from healthy volunteers
T2 sequence (P21731 1-343): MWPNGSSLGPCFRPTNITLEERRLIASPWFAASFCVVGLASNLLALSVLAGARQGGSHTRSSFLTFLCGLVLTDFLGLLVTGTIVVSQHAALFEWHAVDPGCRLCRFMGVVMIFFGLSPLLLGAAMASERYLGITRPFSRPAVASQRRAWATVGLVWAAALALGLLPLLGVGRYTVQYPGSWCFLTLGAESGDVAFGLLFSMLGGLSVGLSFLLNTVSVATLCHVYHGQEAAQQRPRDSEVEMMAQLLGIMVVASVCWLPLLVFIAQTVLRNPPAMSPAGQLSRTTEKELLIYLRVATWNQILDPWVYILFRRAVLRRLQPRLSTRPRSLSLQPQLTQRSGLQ
Method: Platelet rich plasma (PRP), obtained by centrifugation of the blood at 200×g for 20 min, is washed twice (1000×g for 10 min). […] For displacement experiments various concentrations (10^-9 -10^-4 M) of competing ligands were added and incubated for 30 min at 25° C.
The binding data were analysed by computerized non-linear curve fitting using the Ligand program and expressed as IC50.

TxA2 synthase [2] = details: known compound; cited from earlier work

IC50 (TxA2 Synthase [1]; rat whole blood, n = 8 replicates, limits for p = 0.95 printed on following line, clotting 1 h at 37° C.) | inhibitory activity on TxA2 synthesis (in words) (TxA2 Synthase [1]; listed as FCE 27109) | IC50 (TxA2 receptor; 5 nM [3H]-SQ 29,548, 30 min at 25° C., pH 7.4) | Compound | inhibitory activity on TxA2 synthesis (in words) (TxA2 Synthase [1]) | affinity for the receptor / TxA2 antagonism (in words) (TxA2 receptor) | TxA2 synthase inhibitory activity (in words) (TxA2 synthase [2])
390 nM | active as TxA2 synthase inhibitor | 38.7 nM | O=C(O)CCCCO/N=C(\c1ccccc1)C(Cc1ccc(F)cc1)n1ccnc1 (racemic) [FCE 27317, (±)-(E)-5-[1-phenyl-2-(imidazol-1-yl)-2-(4-fluorobenzyl)ethylidene]aminoxypentanoic acid] | marked inhibitory activity on TxA2 synthesis significantly more potent than that of reference compounds Dazoxiben and ASA | good affinity for the receptor better than that showed by the known compound Sulotroban (BM 13177) | 
 |  |  | O=C(O)COc1ccc(CCNS(=O)(=O)c2ccccc2)cc1 [BM 13177] |  |  | devoid of TxA2 synthase inhibitory activity

From US5283254A, “2-(imidazol-1-yl)-2-benzylethyldiene-aminoxyalkanoic acid derivatives” (Farmitalia Carlo Erba S.r.l., priority 1991, dated 1994)
